Active and inactive are the calls of the source. No cut-off for these calls is given here.

Data set [1] has as its system NCI-H1975. The data set can be described thus: Growth inhibition of human NCI-H1975 cells incubated for 5 days by SRB assay. Format: functional, cell-based. The settings on record: NCI-H1975, 120 h. For orientation: The SRB assay estimates cell density from bound dye.
Data set [2] addresses T1, Epidermal growth factor receptor (Homo sapiens, UniProt P00533). As to the kind of experiment: Inhibition of EGFR phosphorylation in human PC-9 cells assessed as downregulation AKT pathway at 1 to 10 uM preincubated for 2 hrs followed by EGF stimulation and measured after 30 mins by Western blot analysis. Format: cell-based. To be noted: dose 1-10 µM, time 2.5 hrs. (In general: Immunoblotting shows a protein as a band on a membrane.)

In data set [3] the target is T1, Epidermal growth factor receptor. The data set can be described thus: Inhibition of EGFR phosphorylation in human A549 cells assessed as downregulation AKT pathway at 1 to 10 uM preincubated for 2 hrs followed by EGF stimulation and measured after 30 mins by Western blot analysis. It is filed as cell-based. To be noted: dose 1-10 µM, time 2.5 hrs.
Data set [4] has the same target. As to the kind of experiment: Inhibition of EGFR phosphorylation in human NCI-H1975 cells assessed as downregulation AKT pathway at 1 to 10 uM preincubated for 2 hrs followed by EGF stimulation and measured after 30 mins by Western blot analysis. It is filed as cell-based. The settings on record: dose 1-10 µM, time 2.5 hrs.
The target is the same in data set [5]. The data set can be described thus: Inhibition of EGFR phosphorylation in human PC-9 cells assessed as downregulation MAPK pathway at 1 to 10 uM preincubated for 2 hrs followed by EGF stimulation and measured after 30 mins by Western blot analysis. Format: cell-based. To be noted: dose 1-10 µM, time 2.5 hrs.
For data set [6] the target is unchanged. As to the kind of experiment: Inhibition of EGFR (unknown origin) using poly (Glu,Tyr) 4:1 as substrate incubated for 8 mins in presence of ATP by colorimetric analysis.
The test system of data set [7] is Calf thymus DNA. As to the kind of experiment: Binding affinity to calf thymus DNA assessed as guanine alkylated adduct formation at 10 mM after 5 days by LC-MS/MS analysis. It is filed as nucleic-acid assay. To be noted: Bos taurus, time 5.0 day.
Data set [8] in a line: Toxicity in po dosed CD-1 mouse assessed as maximum tolerated dose. It is filed as organism-based. The settings on record: in vivo.
Data set [9] deals with T1, Epidermal growth factor receptor. As to the kind of experiment: Irreversible inhibition of EGFR in human A549 cells at 2 uM preincubated for 2 hrs followed by compound wash out with serum free media followed by EGF stimulation and measured after 30 mins by Western blot analysis. It is filed as cell-based. The settings on record: time 2.5 hrs.
The target is the same in data set [10]. The data set can be described thus: Inhibition of EGFR phosphorylation in human A549 cells assessed as downregulation MAPK pathway at 1 to 10 uM preincubated for 2 hrs followed by EGF stimulation and measured after 30 mins by Western blot analysis. It is filed as cell-based. To be noted: dose 1-10 µM, time 2.5 hrs.
Data set [11] shares this target. As to the kind of experiment: Inhibition of EGFR phosphorylation in human NCI-H1975 cells at 1 to 10 uM preincubated for 2 hrs followed by EGF stimulation and measured after 30 mins by Western blot analysis. Format: cell-based. The settings on record: dose 1-10 µM, time 2.5 hrs.
For data set [12] the target is unchanged. The data set can be described thus: Inhibition of EGFR phosphorylation in human NCI-H1975 cells assessed as downregulation MAPK pathway at 1 to 10 uM preincubated for 2 hrs followed by EGF stimulation and measured after 30 mins by Western blot analysis. Format: cell-based. The settings on record: dose 1-10 µM, time 2.5 hrs.
For data set [13], the system named is Calf thymus DNA. The data set can be described thus: Binding affinity to calf thymus DNA assessed as compound hydrolysis at 10 mM after 5 days by LC-MS/MS analysis. It is filed as nucleic-acid assay. To be noted: Bos taurus, time 5.0 day.
Data set [14] relates to A549. The data set can be described thus: Induction of DNA damage in human A549 cells at 0.1 to 10 uM after 2 hrs by comet assay. It is filed as functional, cell-based. The settings on record: dose 0.1-10 µM.
For data set [15], the system named is Calf thymus DNA. The data set can be described thus: Binding affinity to calf thymus DNA assessed as adenine alkylated adduct formation at 10 mM after 5 days by LC-MS/MS analysis. It is filed as nucleic-acid assay. To be noted: Bos taurus, time 5.0 day.
Data set [16] concerns A549. The data set can be described thus: Growth inhibition of human A549 cells incubated for 5 days by SRB assay. Format: functional, cell-based. To be noted: A549, 120 h.
The target in data set [17] is T1, Epidermal growth factor receptor. The data set can be described thus: Inhibition of EGFR phosphorylation in human PC-9 cells at 1 to 10 uM preincubated for 2 hrs followed by EGF stimulation and measured after 30 mins by Western blot analysis. To be noted: dose 1-10 µM, time 2.5 hrs. Format: cell-based.
For data set [18] the target is unchanged. As to the kind of experiment: Inhibition of EGFR phosphorylation in human A549 cells at 1 to 10 uM preincubated for 2 hrs followed by EGF stimulation and measured after 30 mins by Western blot analysis. Format: cell-based. The settings on record: dose 1-10 µM, time 2.5 hrs.
The test system of data set [19] is PC-9. The data set can be described thus: Growth inhibition of human PC-9 cells incubated for 5 days by SRB assay. Format: functional, cell-based. The settings on record: PC-9, 120 h.
Data set [20] concerns A549. The data set can be described thus: Potency index, ratio of gefitinib IC50 in presence of chlorambucil to test compound IC50 for growth inhibition of human A549 cells. Format: functional.
For data set [21], the system named is NCI-H1975. The data set can be described thus: Potency index, ratio of gefitinib IC50 to test compound IC50 for growth inhibition of human NCI-H1975 cells. It is filed as functional.
Data set [22] concerns A549. The data set can be described thus: Potency index, ratio of gefitinib IC50 to test compound IC50 for growth inhibition of human A549 cells. Format: functional.
Data set [23] has as its system NCI-H1975. The data set can be described thus: Potency index, ratio of gefitinib IC50 in presence of chlorambucil to test compound IC50 for growth inhibition of human NCI-H1975 cells. It is filed as functional.

T1 sequence (P00533 whole entry): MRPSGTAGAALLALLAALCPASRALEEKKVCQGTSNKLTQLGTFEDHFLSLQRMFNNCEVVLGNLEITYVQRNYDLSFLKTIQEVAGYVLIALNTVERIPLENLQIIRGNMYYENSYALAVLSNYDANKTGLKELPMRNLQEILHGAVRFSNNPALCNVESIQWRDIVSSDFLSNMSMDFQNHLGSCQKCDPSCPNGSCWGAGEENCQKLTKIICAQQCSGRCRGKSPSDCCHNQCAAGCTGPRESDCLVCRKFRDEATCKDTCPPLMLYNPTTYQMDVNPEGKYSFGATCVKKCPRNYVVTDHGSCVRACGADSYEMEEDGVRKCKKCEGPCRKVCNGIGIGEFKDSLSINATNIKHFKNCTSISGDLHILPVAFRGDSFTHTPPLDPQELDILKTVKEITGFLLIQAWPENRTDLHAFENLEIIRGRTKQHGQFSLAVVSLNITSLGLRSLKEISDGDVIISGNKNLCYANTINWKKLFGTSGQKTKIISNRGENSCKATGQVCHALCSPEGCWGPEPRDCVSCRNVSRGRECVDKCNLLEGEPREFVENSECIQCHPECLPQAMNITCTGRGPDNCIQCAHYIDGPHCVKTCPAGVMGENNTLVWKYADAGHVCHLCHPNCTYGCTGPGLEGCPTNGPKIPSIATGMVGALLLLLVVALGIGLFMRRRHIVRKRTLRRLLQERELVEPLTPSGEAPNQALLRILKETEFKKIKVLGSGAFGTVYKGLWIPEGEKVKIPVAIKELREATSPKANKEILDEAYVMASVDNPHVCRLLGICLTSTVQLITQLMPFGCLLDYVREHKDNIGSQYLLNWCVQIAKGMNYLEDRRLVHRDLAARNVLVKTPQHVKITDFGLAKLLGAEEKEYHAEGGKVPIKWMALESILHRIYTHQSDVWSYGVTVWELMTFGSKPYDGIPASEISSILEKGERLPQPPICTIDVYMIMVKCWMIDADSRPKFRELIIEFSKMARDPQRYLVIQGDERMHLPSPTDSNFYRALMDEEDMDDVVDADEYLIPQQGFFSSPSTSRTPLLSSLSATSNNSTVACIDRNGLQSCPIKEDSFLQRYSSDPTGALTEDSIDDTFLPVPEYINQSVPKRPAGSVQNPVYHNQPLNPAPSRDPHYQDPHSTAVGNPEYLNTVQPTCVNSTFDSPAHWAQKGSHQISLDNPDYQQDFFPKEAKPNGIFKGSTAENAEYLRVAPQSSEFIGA

Turning to `ClCCN(CCCl)c1ccc2ncnc(Nc3cccc(Br)c3)c2c1`, the half-inhibitory concentration (IC50) (as a rule, the point on the concentration scale where inhibition reaches its midpoint) in data set [1] stood at 6.07 µM; in data set [6] it was 1.26 µM; in [16], 6.51 µM; in data set [19] it was 0.203 µM. The inhibition entry in data set [2], in data set [3], in data set [4], in data set [5], in data set [9] and in [10] was “Active” throughout. Besides, the inhibition result in [11], in data set [12], in data set [17] and in data set [18] was “Active” in each case. The outcome in data set [7], in [13], in [14] and in data set [15] was Active. For the same compound, the maximum tolerated dose (MTD) (usually the highest dose tested that stayed within the study's limit of toxicity) in [8] is 150 mg/kg.
In the case of `O=C(O)CCCc1ccc(N(CCCl)CCCl)cc1` [CHLORAMBUCIL], the concentration for half-maximal inhibition (IC50) in data set [1] turned out to be 28.2 µM; in data set [16], 24.5 µM; in data set [19], 7.17 µM. Moreover, the inhibition entry in [11], in data set [17] and in data set [18] was “inactive” each time. In addition, the result in data set [14] was inactive.
Take `CN(CCO)c1ccc2ncnc(Nc3cccc(Br)c3)c2c1`: the IC50 was 11.3 µM in [1], 34.5 µM in data set [16] and 0.103 µM in data set [19].
For `CC(=O)OCCN(CCO)c1ccc2ncnc(Nc3cccc(Br)c3)c2c1` the same measures were 16 µM, 48 µM and 0.086 µM.
With `COc1cc2ncnc(Nc3ccc(F)c(Cl)c3)c2cc1OCCCN1CCOCC1`, the outcome in data set [14] was inactive.
Turning to `CC(=O)OCCN(CCOC(C)=O)c1ccc2ncnc(Nc3cccc(Br)c3)c2c1`, the IC50 in data set [1] was 20.2 µM; in data set [16], 52.6 µM; in data set [19], 0.13 µM.
For `CC(=O)OCCN(C)c1ccc2ncnc(Nc3cccc(Br)c3)c2c1` the same measures were 9.4 µM, 30.5 µM and 0.098 µM.
`OCCN(CCO)c1ccc2ncnc(Nc3cccc(Br)c3)c2c1`: the results for the IC50 in data set [1], in data set [16] and in data set [19] were 18.1 µM, 46.6 µM and 0.07 µM, respectively.
As to `CN(CCCl)c1ccc2ncnc(Nc3cccc(Br)c3)c2c1`, the “Ratio IC50” value in [20], in data set [21], in [22] and in [23] was 2 in each case. The 50% inhibitory concentration (IC50) in data set [1] was determined as 2.81 µM; in [6], 0.504 µM; in [16], 3.16 µM; in [19], 0.21 µM. For the same compound, the inhibition result in data set [2], in data set [3], in data set [5], in [10], in data set [17] and in [18] was “Active” in each case. The outcome in [7], in [13], in data set [14] and in data set [15] was Active. Further, in [8], the MTD was 150 mg/kg. In data set [9], the inhibition entry is “inactive”.
In the case of `ClCCNc1ccc2ncnc(Nc3cccc(Br)c3)c2c1`, the figures for the IC50 in [1], in [16] and in [19] were 0.48 µM, 2.06 µM and 0.09 µM, respectively. Also, the inhibition entry in [2], in [3], in data set [5], in data set [9], in data set [10] and in data set [17] was “Active” in each case. In addition, in data set [18], the inhibition entry is “Active”. For the same compound, the result in data set [7], in data set [13], in data set [14] and in [15] was Active. The MTD in data set [8] was 150 mg/kg.

Source of the values: ChEMBL document CHEMBL4680216, “Comparative analysis of the dual EGFR-DNA targeting and growth inhibitory properties of 6-mono-alkylamino- and 6,6-dialkylaminoquinazoline-based type II combi-molecules” (Eur J Med Chem, 2020).
